In one test the test system is Colo205. Put plainly: Cytostatic activity on human colon cancer cell line Colo205 (WST-1). The class given is cell-based. The settings on record: Homo sapiens, COLO 205, 72 h, 10 μmol/L, read-out: cytostatic rate (%) Colo205 (10 μmol/L). As for the experimental part:
(§1) The cytostatic rates of the test compound on the human pancreatic cancer cell line AsPC-1 and the human colon cancer cell line Colo205 were determined in the following manner.
(§2) For culturing AsPC-1, RPMI 1640 medium containing 20% fetal bovine serum, 1 mmol/L sodium pyruvate, 10 mmol/L HEPES, 4.5 g/L glucose and penicillin/streptomycin (1:1). The Colo205 cell was cultured using RPMI 1640 medium containing 10% fetal bovine serum, 1 mmol/L sodium pyruvate, 10 mmol/L HEPES, 4.5 g/L glucose and penicillin/streptomycin (1:1) was used. Each 80 μL of the AsPC-1 cell having a concentration of 5×10^4 cells/mL (or the Colo205 having a concentration of 5×10^4 cells/mL) was inoculated to wells of a TC MICROWELL 96F plate (Nalge Nunc International, Catalog No. 167008) and was cultured in a 5% carbon dioxide gas incubator at 37° C. for 24 hours. Each 20 μL of a solution of the test compound in DMSO which was prepared to make the final concentration to 1 μmol/L or 10 μmol/L, was added to each well. Each 20 μL of DMSO was added to the control well and the blank well to a final concentration of 0.1%. After adding the test compound, the cell was incubated in a 5% carbon dioxide gas incubator at 37° C. for 72 hours except for the blank well. After adding 20 μL of WST-1 reagent which was diluted to 50% by RPMI medium to each well, the cells were further incubated at 37° C. for 2 hours. Then, the absorbances at 450 nm (reference wavelength: 690 nm) were determined with a microplate spectrophotometer SPECTRA max 340PC. The cytostatic rate (%) was then determined in the similar manner to the above multiple myeloma cell lines.
On the technique in general: Tetrazolium assays rely on reduction of a dye to a coloured formazan, in cell work by metabolically active cells.

The next test deals with NCI-H929. The test is described as follows: Cytostatic activity on human multiple myeloma cell line NCI-H929 (WST-1). The following applies: Homo sapiens, NCI-H929, 72 h, 72 hours; for inhibition at 1 µM: 1 μmol/L, read-out: cytostatic rate (%) H929 (1 μmol/L). Type of test: cell-based. In short, it runs like this:
(§3)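 Cytostatic rate is 100 minus % growth relative to DMSO-only wells (100%) and blank wells (0%), read by WST-1 absorbance at 450/690 nm after 2 h. Compound at 1 or 10 μmol/L final was applied for 72 h at 37 °C to cells seeded 24 h earlier.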

The target in a further test is T1, IGF-1R (Homo sapiens, UniProt P08069).
T1 construct: purchased Upstate Co. 14-465
Put plainly: IGF-1R inhibitory activity (kinase reaction, time-resolved fluoroimmunoassay). The class given is biochemical. The following applies: test compound 10 μmol/L. Put shortly:
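Compounds were tested at a single 10 μmol/L concentration. Each was incubated with recombinant IGF-1R (200 μg/L), 10 mmol/L ATP, MgCl2/MnCl2 and Na3VO4 (pH 7.5) on immobilized poly(Glu-Tyr) peptide for 30 min at 24° C. Eu-anti-phosphotyrosine time-resolved fluorescence (340/615 nm) gave relative activity against no-compound and no-enzyme wells, reported as % inhibition.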

Another test concerns AsPC-1. The test is described as follows: Cytostatic activity on human pancreatic cancer cell line AsPC-1 (WST-1). The class given is cell-based. The following applies: Homo sapiens, ASPC1, 72 h, 10 μmol/L, read-out: cytostatic rate (%) AsPC-1 (10 μmol/L). As for the experimental part: as §1, §2
The next test concerns KMS-11. Put plainly: Cytostatic activity on human multiple myeloma cell line KMS-11 (WST-1). The class given is cell-based. The following applies: Homo sapiens, KMS-11, 72 h, 72 hours; for inhibition at 1 µM: 1 μmol/L, read-out: cytostatic rate (%) KMS-11 (1 μmol/L). Put shortly:
as §3

The mark [1] stands for this setting: IGF-1R active recombinant enzyme.

Where a name gives a salt, the structure may show the parent alone.

T1 sequence (P08069 959-1367 limits assumed): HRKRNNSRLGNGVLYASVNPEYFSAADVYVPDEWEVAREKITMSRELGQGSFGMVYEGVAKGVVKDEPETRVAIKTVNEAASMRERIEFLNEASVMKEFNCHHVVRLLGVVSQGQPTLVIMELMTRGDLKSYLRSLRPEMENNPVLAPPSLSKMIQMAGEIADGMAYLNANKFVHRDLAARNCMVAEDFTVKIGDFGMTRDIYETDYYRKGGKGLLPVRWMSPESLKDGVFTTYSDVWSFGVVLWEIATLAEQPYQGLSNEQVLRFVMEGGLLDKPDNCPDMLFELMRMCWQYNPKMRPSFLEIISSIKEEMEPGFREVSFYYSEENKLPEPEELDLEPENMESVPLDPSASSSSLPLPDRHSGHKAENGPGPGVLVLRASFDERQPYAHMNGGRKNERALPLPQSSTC

As to `CN(C(=O)c1ccc[nH]1)c1cc(C(=O)N2CCOCC2)ccc1/C=C/c1n[nH]c2ccccc12` [Compound 217, (E)-N-{2-[2-(1H-indazol-3-yl)vinyl]-5-(morpholin-4-ylcarbonyl)phenyl}-N-methylpyrrole-2-carboxamide hydrochloride], the inhibition at 10 µM in the test on Colo205 came out at 122%; at IGF-1R (setting [1]), 96.6%; in the test with AsPC-1, 91.9%. Also, the inhibition at 1 µM with NCI-H929 came out at 113%; in the test with KMS-11, 128%.

`Cc1ccsc1C(=O)Nc1cc(CN2CC[C@@H](N)C2)ccc1/C=C/c1n[nH]c2ccccc12` [Compound 233, (R)-(E)-N-{5-(3-aminopyrrolidin-1-ylmethyl)-2-[2-(1H-indazol-3-yl)vinyl]phenyl}-3-methylthiophene-2-carboxamide]: the inhibition at 10 µM in the test on Colo205 came out at 123%; at IGF-1R (setting [1]), 106%; with AsPC-1, 89.1%. Moreover, the figures for the inhibition at 1 µM with NCI-H929 and with KMS-11 were 118% and 102%, respectively.

Turning to `Cc1ccsc1C(=O)Nc1cc(CO)ccc1/C=C/c1n[nH]c2ccccc12` [Compound 108, (E)-N-{5-hydroxymethyl-2-[2-(1H-indazol-3-yl)vinyl]phenyl}-3-methylthiophene-2-carboxamide], the inhibition at 10 µM turned out to be 121% in the test on Colo205; 123% in the test on NCI-H929 (10 μmol/L, read-out: cytostatic rate (%) H929 (10 μmol/L)); 95% on IGF-1R; 87.9% in the test on AsPC-1; 110% in the test on KMS-11 (10 μmol/L, read-out: cytostatic rate (%) KMS-11 (10 μmol/L)).

(Values after patent publication US7605272B2, “IGF-1R inhibitor” (Kyowa Hakko Kirin Co., Ltd., priority 2005, dated 2009).)
